From patent US20200236959A1, “METHOD FOR ANTI-SPROUTING TUBER TREATMENT WITH REDUCED AMOUNT OF CIPC” (priority 2014, published 2020)

How the values were obtained:
potatoes = conditions: hot fogging; cited from earlier work
[1] = system: potatoes of the variety Bintje; assay: Fogging trial in potato storage cabins, sprout index (PCA scale); format: in vivo, Solanum tuberosum; conditions: fogging every 3 weeks during storage, PCA scale 1-9
Procedure: The storage system was designed to duplicate a large commercial storage facility in miniature. It consisted of 4 test cabins, with room for 4 boxes per level. In total there were 7 levels, and the boxes were placed in a stair-pattern, in clock-wise direction. Each cabin could be used to store up to 560 kg of potatoes per cabin. The dimensions of a cabin are depicted in FIG. 1.
During storage the air temperature within the storage system was kept between 5.0° C. and 9.5° C. The relative humidity was kept between 87% and 100%.
The application equipment used for hot fogging was IGEBA TF-35. The application equipment used for cold fogging was VEUGEN, type: FOGCOL. The operation pressure was 3.3 bar. […]
Around 15 minutes before treatment, Automatic Regulation was switched off and Manual Internal Ventilation was switched on (Force III). […] Note: Ventilation Force III means ˜900 m^3/h. • As the exact weight of tubers in the cell was known, the exact quantity of formulated product was calculated and prepared. • During spraying/fogging and till around 15 minutes after spraying, Internal • Ventilation was kept switched on (Force III) to assure a good contact between product and tubers. • Around 15 minutes after spraying, Internal Ventilation was switched off • The day after (minimum 12 hours after end of spraying) Automatic Regulation was switched on till next application or till end of trial […]

Compound | anti-sprouting efficacy in combination with CIPC (potatoes) | sprout growth (sprout index, FIG. 2) [1]
C=C(C)C1CC=C(C)C(=O)C1 (centres unmarked) [carvone] | good result | –
C=C(C)C1CC=C(C)CC1 (centres unmarked) [Limonene, 1-methyl-4-(1-methylethenyl)-cyclohexene] | – | did not have any effect on sprout growth
